Experimental data from patent publication US12708605B2, “Method of administering a hormone encapsulated by a hydrogel with a dual chamber syringe” (VITALTE LIFESCIENCES INC., priority 2024, dated 2026).

Assay: Saturation level of T in saline (T powder slurry)
Type: physicochemical
Method: The T powder was produced as a 2.5 mg/mL slurry in buffer to reach the near saturation point of T in the buffer. Samples of the T powder slurry were removed from only the top layer of the slurry fluid to avoid aspirating T particles in the slurry that may have precipitated at to the bottom. T pellets were collected directly from the vials in which they were stored. The 83 mg hydrogels containing 30% T were collected from Dulbecco's PBS buffer, rinsed, and dried. Each of the collected samples was then placed in a separate container of incubation media (saline in this instance) for the release studies.
Samples of the respective incubation media for the T powder, pelleted T, and hydrogel encapsulated T were collected at 4, 24, and 48 hours, with 2-3 replicates from each experimental group at each collection time. All collected samples were then diluted before assaying for released T in the incubation media. Initially, the samples collected at 4 hours were diluted 400-fold, while the samples collected at 24 and 48 hours were diluted 1600-fold. […] As a result, dilution testing was performed at dilutions of 1200, 1600, 1800, 2200, 2400, and 3000-fold. […]

## C[C@]12CC[C@H]3[C@@H](CCC4=CC(=O)CC[C@@]43C)[C@@H]1CC[C@@H]2O [T powder, Testosterone]
  approximate saturation level of T in saline: about 1.5 mg/L
